Several values for one entry are separate records, joined by “and”; a condition that tells them apart may be missing. Equal values may be shown once.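 How tested: cells in 96-well plates exposed to compound for 48 hours at five concentrations. At the GI50, growth is halved. At the TGI there is no net growth.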
What was measured:
Experiment in all cases: inhibition of tumour cell growth, NCI panel, 48 h
[1] = system: OVCAR-3 ovarian
[2] = system: RXF 393 renal
[3] = system: UACC-257 melanoma
[4] = system: OVCAR-4 ovarian
[5] = system: NCI-H460 lung
[6] = system: IGROV1 ovarian
[7] = system: SF-295 CNS
[8] = system: DLD-1 colon
[9] = system: COLO 205 colon
[10] = system: LOX IMVI melanoma

| Structure (SMILES) | TGI [1] | TGI [2] | TGI [3] | TGI [4] | TGI [5] | TGI [6] | TGI [7] | TGI [8] | TGI [9] | TGI [10] | GI50 [2] | GI50 [4] | GI50 [6] | GI50 [7] | GI50 [8] |
| --- | --- | --- | --- | --- | --- | --- | --- | --- | --- | --- | --- | --- | --- | --- | --- |
| COc1ccc(NC(=O)c2cc(OC)c(OC)c(OC)c2)cc1 | > 100 µM | 94.3 µM | > 100 µM | > 100 µM | > 100 µM | > 100 µM | > 100 µM | > 100 µM | > 71.9 µM | > 100 µM |  |  |  |  |  |
| CCCCCCCCCCCCCC(=O)CBr | 39.9 µM | 10.5 µM | 17.7 µM | 28.8 µM | 35.3 µM | 15.1 µM | 29.3 µM | 34.3 µM | 30.1 µM | 23 µM |  |  |  |  |  |
| COc1ccc2oc3cccc(NCCN(C)C)c3c(=O)c2c1 | 28.5 µM | 26.4 µM | 30.8 µM | 27.7 µM | 21.2 µM | 31.2 µM | 29.9 µM | 27.5 µM | 19.1 µM | 22.7 µM |  |  |  |  |  |
| CCC12CCCC(=O)N1C(CO)C(c1ccccc1)O2 (stereo not given) | > 100 µM | > 100 µM | > 100 µM | > 100 µM | > 100 µM | > 100 µM | > 100 µM | > 100 µM | > 100 µM | > 100 µM |  |  |  |  |  |
| N#CC(C(=O)C(=O)NCCCNC(=O)C(=O)C(C#N)c1ccccc1)c1ccccc1 (stereo not given) | > 100 µM | > 100 µM | > 100 µM | > 100 µM | > 100 µM | > 100 µM | > 100 µM | > 100 µM | > 100 µM | > 100 µM |  |  |  |  |  |
| N[C@H](C(=O)O)[C@H](Cl)CC(=O)O | > 100 µM | > 100 µM | > 100 µM | > 100 µM | > 100 µM | > 100 µM | > 100 µM | > 100 µM | > 100 µM | > 100 µM |  |  |  |  |  |
| CCCCCCCCCCCCCCCC(=O)OCC1OC(n2c(O)c(N=NC(N)=S)c3ccc([N+](=O)[O-])cc32)C(OC(C)=O)C1OC(C)=O (stereo not given) | > 100 µM | > 100 µM | > 100 µM | > 100 µM | > 100 µM | > 100 µM | > 100 µM | > 100 µM | > 100 µM | > 100 µM |  |  |  |  |  |
| CC(=O)c1cc([N+](=O)[O-])ccc1OCC(=O)O | > 100 µM | > 100 µM | > 100 µM | > 100 µM | > 100 µM | > 100 µM | > 100 µM | > 100 µM | > 100 µM | > 100 µM |  |  |  |  |  |
| O=C(CN1CCN(c2ccccc2)CC1)N1CCc2c([nH]c3ccccc23)C1c1cccnc1 (stereo not given) | > 100 µM | 49.5 µM | > 100 µM | > 66.8 µM | > 100 µM | > 100 µM | 84.8 µM | > 100 µM | > 100 µM | > 100 µM |  |  |  |  |  |
| COc1nc2nccc-2c2occn12 | > 100 µM | > 100 µM | > 100 µM | > 100 µM | > 100 µM | > 100 µM | > 100 µM | > 100 µM | > 100 µM | > 100 µM |  |  |  |  |  |
| Cc1ccc(NC(=O)/C(=N\Nc2ccc([N+](=O)[O-])cc2[N+](=O)[O-])C2C(=O)NC(=O)NC2=O)cc1 | > 100 µM | > 100 µM | > 100 µM | > 100 µM | > 100 µM | > 100 µM | > 100 µM | > 100 µM | > 100 µM | > 100 µM |  |  |  |  |  |
| CN(C)CCCN1CCc2c([nH]c3ccccc23)C1c1cccnc1 (stereo not given) | > 100 µM | > 100 µM | > 100 µM | > 100 µM | > 100 µM | > 100 µM | > 100 µM | > 100 µM | > 100 µM | > 100 µM |  |  |  |  |  |
| CC1C(=O)C(C)C(c2ccccc2)N(N=O)C1c1ccccc1 (stereo not given) | 685 µM | > 68.4 µM and 171 µM | > 897 µM | > 661 µM | > 1000 µM | > 673 µM | 498 µM | > 1000 µM | > 674 µM | > 783 µM | 49.6 µM | > 378 µM | 216 µM | 181 µM | > 1000 µM |
| N#C/C(=C\c1cccc(O)c1)C(N)=O | > 100 µM | > 100 µM | > 100 µM | > 100 µM | > 100 µM | > 100 µM | > 100 µM | > 100 µM | > 100 µM | > 100 µM |  |  |  |  |  |
| OCCCCCCOc1ccc(-c2cc(-c3ccccn3)nc(-c3ccccn3)c2)cc1 | 1.32 µM | 0.853 µM | 10.2 µM | 4.81 µM | 1.17 µM | 2.7 µM | 1.64 µM | 2.99 µM | 8.09 µM | 1.02 µM |  |  |  |  |  |
| Cc1cc(=O)oc2cc3c(cc12)Oc1ccccc1O3 | > 100 µM | > 100 µM | > 100 µM | > 100 µM | > 100 µM | > 100 µM | > 100 µM | > 100 µM | > 100 µM | > 100 µM |  |  |  |  |  |
| COc1cccc(C2c3cc4c(cc3OC(O)(CO)C2C(=O)O)OCO4)c1 (stereo not given) (tested in a mixture with another compound) | > 100 µM | > 100 µM | > 100 µM | > 100 µM | 49 µM | > 100 µM | > 100 µM | > 100 µM | > 100 µM | > 100 µM |  |  |  |  |  |
| COc1cc([C@@H]2c3cc4c(cc3[C@@H](NC(=O)c3ccccc3)C3COC(=O)[C@@H]32)OCO4)cc(OC)c1O (stereo not given in full) | 56.7 µM | 74.4 µM | 48.1 µM | > 100 µM | 15.2 µM | 25.7 µM | > 100 µM | > 100 µM | 92.8 µM | 25.1 µM |  |  |  |  |  |
| CCOC(=O)NN1C(=O)C(=P(c2ccccc2)(c2ccccc2)c2ccccc2)C(C(=O)OCC)=C1C | > 100 µM | > 100 µM | > 100 µM | > 100 µM | > 100 µM | > 100 µM | > 100 µM | > 100 µM | > 100 µM | > 100 µM |  |  |  |  |  |
| CCCCCCCCCCCCCCCCCCCCCC(=O)Nc1ccn(C2OC(CO)C(O)C2O)c(=O)n1 (stereo not given) | > 100 µM | > 100 µM | > 100 µM | > 100 µM | > 100 µM | > 100 µM | > 100 µM | > 100 µM | > 100 µM | > 100 µM |  |  |  |  |  |
| CC(C)CC1=[N+]=C(NC#N)N=C(CCC(=O)Nc2ccccc2[N+](=O)[O-])C1 | > 100 µM | > 100 µM | > 100 µM | > 100 µM | > 100 µM | > 100 µM | > 100 µM | > 100 µM | > 100 µM | > 100 µM |  |  |  |  |  |
| CSc1nc2c(nc(N)n2C2OCC(O)C(O)C2O)c(=O)n1C (stereo not given) | > 100 µM | > 100 µM | > 100 µM | > 100 µM | > 100 µM | > 100 µM | > 100 µM | > 100 µM | > 100 µM | > 100 µM |  |  |  |  |  |
